Measured values published in US7138361B2, “Herbicidal heterocycles” (E. I. du Pont de Nemours and Company, priority 2000, dated 2006).

Columns and labels:
Format in all cases: in vivo
[1] = tested on: wheat (Triticum aestivum); assay: Test B postemergence; settings: 13 to 15 days
Outline: (§1)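 Preemergence: seeds planted and treated with test chemicals in non-phytotoxic solvent with surfactant; postemergence on plants 2–18 cm (1- to 4-leaf stage). Kept in greenhouse 13–15 days, then visually rated against controls on a 0 (no effect) to 100 (complete control) scale.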

[2] = tested on: Surinam grass (Brachiaria decumbens); assay: Test B postemergence; settings: 13 to 15 days
Outline: as §1

[3] = tested on: velvetleaf (Abutilon theophrasti); assay: Test B postemergence; settings: 13 to 15 days
Outline: as §1

[4] = tested on: giant foxtail (Setaria faberii); assay: Test B postemergence; settings: 13 to 15 days
Outline: as §1

[5] = tested on: barnyardgrass (Echinochloa crus-galli); assay: Test B postemergence; settings: 13 to 15 days
Outline: as §1

corn (Zea mays) [6] = assay: Test B postemergence; settings: 13 to 15 days
Outline: as §1

[7] = tested on: blackgrass (Alopecurus myosuroides); assay: Test B postemergence; settings: 13 to 15 days
Outline: as §1

[8] = tested on: morning glory (Ipomoea hederacea); assay: Test B postemergence; settings: 13 to 15 days
Outline: as §1

[9] = tested on: pigweed (Amaranthus retroflexus); assay: Test B postemergence; settings: 13 to 15 days
Outline: as §1

rice (Oryza saliva) [10] = assay: Test C flooded paddy test; settings: for Rice plant response rating: Flooded Paddy, scale 0 to 100, 0 no effect, 100 complete control; for Plant response rating, Rice / Plant response rating (scale 0 to 100), Rice: flooded paddy test; for Plant response rating, Rice: scale 0 to 100 (0 no effect, 100 complete control)
Outline: (§2)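 Flooded paddy, 2-leaf stage at treatment. Readout: visual % control vs untreated, 0–100, at 12–14 d in greenhouse.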

[11] = tested on: duck salad (Heteranthera limosa); assay: Test C flooded paddy test; settings: for Ducksalad plant response rating: Flooded Paddy, scale 0 to 100, 0 no effect, 100 complete control; for Plant response rating, Ducksalad / Plant response rating (scale 0 to 100), Ducksalad: flooded paddy test; for Plant response rating, Ducksalad: scale 0 to 100 (0 no effect, 100 complete control)
Outline: as §2

[12] = tested on: barnyardgrass (Echinochloa crus-galli); assay: Test C flooded paddy test; settings: for Barnyardgrass plant response rating: Flooded Paddy, scale 0 to 100, 0 no effect, 100 complete control; for Plant response rating, Barnyardgrass / Plant response rating (scale 0 to 100), Barnyardgrass: flooded paddy test; for Plant response rating, Barnyardgrass: scale 0 to 100 (0 no effect, 100 complete control)
Outline: as §2

[13] = tested on: smallflower flatsedge (Cyperus difformis); assay: Test C flooded paddy test; settings: for Flatsedge plant response rating: Flooded Paddy, scale 0 to 100, 0 no effect, 100 complete control; for Plant response rating, Flatsedge / Plant response rating (scale 0 to 100), Flatsedge: flooded paddy test; for Plant response rating, Flatsedge: scale 0 to 100 (0 no effect, 100 complete control)
Outline: as §2

Nightshade = assay: Test C preemergence; settings: Rate 250 g/ha, visual evaluation after 12 to 14 days
[14] = tested on: cocklebur (Xanthium strumarium); assay: Test B preemergence; settings: scale 0 to 100, 0 no effect, 100 complete control
Outline: as §1

rice (Oryza saliva) [15] = assay: Test B preemergence; settings: Preemergence, Rate 500 g/ha; scale 0 to 100, 0 no effect, 100 complete control
Outline: as §1

[16] = tested on: Surinam grass (Brachiaria decumbens); assay: Test B preemergence; settings: scale 0 to 100, 0 no effect, 100 complete control
Outline: as §1

[17] = tested on: velvetleaf (Abutilon theophrasti); assay: Test B preemergence; settings: Preemergence, Rate 500 g/ha; scale 0 to 100, 0 no effect, 100 complete control
Outline: as §1

[18] = tested on: giant foxtail (Setaria faberii); assay: Test B preemergence; settings: scale 0 to 100, 0 no effect, 100 complete control
Outline: as §1

[19] = tested on: crabgrass (Digitaria sanguinalis); assay: Test B preemergence; settings: scale 0 to 100, 0 no effect, 100 complete control
Outline: as §1

[20] = tested on: barnyardgrass (Echinochloa crus-galli); assay: Test B preemergence; settings: scale 0 to 100, 0 no effect, 100 complete control
Outline: as §1

[21] = tested on: lambsquarters (Chenopodium album); assay: Test B preemergence; settings: scale 0 to 100, 0 no effect, 100 complete control
Outline: as §1

corn (Zea mays) [22] = assay: Test B preemergence; settings: scale 0 to 100, 0 no effect, 100 complete control
Outline: as §1

[23] = tested on: morning glory (Ipomoea hederacea); assay: Test B preemergence; settings: Preemergence, Rate 500 g/ha; scale 0 to 100, 0 no effect, 100 complete control
Outline: as §1

[24] = tested on: pigweed (Amaranthus retroflexus); assay: Test B preemergence; settings: Preemergence, Rate 500 g/ha; scale 0 to 100, 0 no effect, 100 complete control
Outline: as §1

Sunflower = assay: Test C preemergence; settings: Rate 125 g/ha, scale 0 to 100, 0 no effect, 100 complete control
[25] = Rate 125 g/ha, scale 0 (no effect) to 100 (complete control)
[26] = Rate 500 g/ha, scale 0 to 100, 0 is no effect, 100 is complete control
[27] = Rate 16 g/ha, visually evaluated after 12 to 14 days, 0 = no effect, 100 = complete control
[28] = under head Rate 16 g/ha, (own rate not given), after 12 to 14 days

## CC(C)(C)c1ccn(C2SCN(c3cccc(OC(F)(F)F)c3)C2=O)n1 (centres unmarked) [Compound 30]
[1]; [25]
  Plant response rating, Wheat: 0
[1]; [26]
  Plant response rating, Wheat: 0
[2]; [25]
  Plant response rating, Surinam grass: 0
[2]; [26]
  Plant response rating, Surinam grass: 20
[3]; [25]
  Plant response rating, Velvetleaf: 0
[3]; [26]
  Plant response rating, Velvetleaf: 0
[4]; [25]
  Plant response rating, Foxtail, Giant: 10
[4]; [26]
  Plant response rating, Foxtail, Giant: 80
[5]; [25]
  Plant response rating, Barnyardgrass: 100
[5]; [26]
  Plant response rating, Barnyardgrass: 100
Corn (Zea mays) [6]; [25]
  Plant response rating, Corn: 0
Corn (Zea mays) [6]; [26]
  Plant response rating, Corn: 0
[7]; [25]
  Plant response rating, Blackgrass: 0
[7]; [26]
  Plant response rating, Blackgrass: 20
[8]; [25]
  Plant response rating, Morningglory: 40
[8]; [26]
  Plant response rating, Morningglory: 90
[9]; [25]
  Plant response rating, Pigweed: 100
[9]; [26]
  Plant response rating, Pigweed: 100
Rice (Oryza saliva) [10]; Rate 250 g/ha
  Rice plant response rating: 80
Rice (Oryza saliva) [10]; Rate 500 g/ha
  Rice plant response rating: 80
Rice (Oryza saliva) [10]; Rate 62 g/ha
  Plant response rating, Rice: 0
Rice (Oryza saliva) [10]; Rate 125 g/ha
  Plant response rating, Rice: 20
Rice (Oryza saliva) [10]; [27]
  Plant response rating (scale 0 to 100), Rice: 0
Rice (Oryza saliva) [10]; [28]
  Plant response rating (scale 0 to 100), Rice: 0
[11]; Rate 250 g/ha
  Ducksalad plant response rating: 100
[11]; Rate 500 g/ha
  Ducksalad plant response rating: 100
[11]; Rate 62 g/ha
  Plant response rating, Ducksalad: 70
[11]; Rate 125 g/ha
  Plant response rating, Ducksalad: 100
[11]; [27]
  Plant response rating (scale 0 to 100), Ducksalad: 50
[11]; [28]
  Plant response rating (scale 0 to 100), Ducksalad: 0
[12]; Rate 250 g/ha
  Barnyardgrass plant response rating: 100
[12]; Rate 500 g/ha
  Barnyardgrass plant response rating: 100
[12]; Rate 62 g/ha
  Plant response rating, Barnyardgrass: 100
[12]; Rate 125 g/ha
  Plant response rating, Barnyardgrass: 100
[12]; [27]
  Plant response rating (scale 0 to 100), Barnyardgrass: 80
[12]; [28]
  Plant response rating (scale 0 to 100), Barnyardgrass: 60
[13]; Rate 250 g/ha
  Flatsedge plant response rating: 100
[13]; Rate 500 g/ha
  Flatsedge plant response rating: 100
[13]; Rate 62 g/ha
  Plant response rating, Flatsedge: 90
[13]; Rate 125 g/ha
  Plant response rating, Flatsedge: 100
[13]; [27]
  Plant response rating (scale 0 to 100), Flatsedge: 90
[13]; [28]
  Plant response rating (scale 0 to 100), Flatsedge: 90
Nightshade
  Plant response rating (0 to 100), Nightshade: 100
[14]; Preemergence, Rate 500 g/ha
  Plant response rating, Cocklebur: 90
[14]; preemergence, Rate 125 g/ha
  Plant response rating, Cocklebur: 0
Rice (Oryza saliva) [15]
  Plant response rating, Rice: 0
[16]; Preemergence, Rate 500 g/ha
  Plant response rating, Surinam grass: 60
[16]; preemergence, Rate 125 g/ha
  Plant response rating, Surinam grass: 40
[17]
  Plant response rating, Velvetleaf: 40
[18]; Preemergence, Rate 500 g/ha
  Plant response rating, Foxtail, Giant: 100
[18]; preemergence, Rate 125 g/ha
  Plant response rating, Foxtail, Giant: 70
[19]; Preemergence, Rate 500 g/ha
  Plant response rating, Crabgrass: 100
[19]; preemergence, Rate 125 g/ha
  Plant response rating, Crabgrass: 20
[20]; Preemergence, Rate 500 g/ha
  Plant response rating, Barnyardgrass: 100
[20]; preemergence, Rate 125 g/ha
  Plant response rating, Barnyardgrass: 40
[21]; Preemergence, Rate 500 g/ha
  Plant response rating, Lambsquarters: 100
[21]; preemergence, Rate 125 g/ha
  Plant response rating, Lambsquarters: 100
Corn (Zea mays) [22]; Preemergence, Rate 500 g/ha
  Plant response rating, Corn: 0
Corn (Zea mays) [22]; preemergence, Rate 125 g/ha
  Plant response rating, Corn: 0
[23]
  Plant response rating, Morningglory: 90
[24]
  Plant response rating, Pigweed: 100
Sunflower
  Plant response rating, Sunflower: 80
